Results reported in patent publication US7186565B2, “Sampling and toxicity monitoring device and method” (priority 2001, dated 2007).
pEC50: −log10 of the molar value. Where two headings read alike, the source gives them in different places.

Legend:
[1] = test system: 7-ethoxyresorufin-o-deethylase (EROD) activity in a rainbow trout liver cell line (RTL-W1); test: Induction of EROD activity in RTL-W1 cells; type: cell-based; settings: Oncorhynchus mykiss
Procedure: For toxicity tests, reporter cells or molecules are preferably added to chambers in an appropriate culture medium. An appropriate liquid culture medium is one that will maintain reporter cell vitality (or reporter molecule integrity) and support expression of a chosen endpoint in the toxicological test. For example for the experiment depicted in FIG. 8, liver cells from rainbow trout (RTL-W1 cells) were added in Leibovitz' L-15 medium that contained 5% fetal bovine serum as a supplement (Bols et al., 1999). The reporters are left to desorb or interact with the chemicals at the sampler surface for a predetermined time. […] After a predetermined exposure time, the reporter cells are evaluated for the expression of toxicity. […] Other examples of toxicological endpoints would be the disruption of metabolic activity or the loss of cell membrane integrity in cultured cells, which can be measured using the fluorescent indicator dyes alamar Blue and CFDA-AM (Schirmer et al., 2000a/b), or the modulation of light emission in luminescent bacteria (Bitton and Koopman, 1992). Although not essential to the method, the arrangement of chambers in a multiwell plate format and the use of fluorescent indicator dyes or light emission is advantageous because of recent developments in automated fluorescence/luminescence multiwell plate readers. Plates with […] can be analyzed in seconds. […]

[2] = Procedure: For these experiments fluoranthene was dissolved in the aqueous medium, L-15/ex, to yield 297 nM (60 ng/ml) of fluoranthene. The fluoranthene solution was added once to empty wells of tissue culture plates, and 10 min, 2, 4, and 24 h later, the medium was removed and culture wells extracted with methanol in order to solubilize fluoranthene that had adsorbed to the culture surface. The concentration of fluoranthene in the methanol extracts was subsequently determined by high performance liquid chromatography (HPLC) and expressed as a percentage of the initial concentration, 297 nM.

Row | Structure (SMILES) | pEC50 ([1]; BkF added in dissolved form to wells after cell attachment (conventional method), RTL-W1 cells, read-out: EC50 of EROD induction, dissolved BkF) | pEC50 ([1]; BkF adsorbed to polystyrene culture wells prior to cell attachment, RTL-W1 cells attached 24 h before EROD measurement, read-out: EC50 of EROD induction, sorbed BkF) | binding of fluoranthene by polystyrene of tissue culture plates ([2]; 297 nM in L-15/ex, 10 min, 2, 4, 24 h) | time of exposure until sorption equilibrium is reached ([2]; single dose 297 nM (60 ng/ml) in L-15/ex in empty wells, methanol extract, HPLC)
1 | c1ccc2cc3c(cc2c1)-c1cccc2cccc-3c12 [BkF, benzo[k]fluoranthene] | 8.07 | 7.98 |  | 
2 | c1ccc2c(c1)-c1cccc3cccc-2c13 [fluoranthene] |  |  | high affinity | less than 24 h
